Laboratory results published in PMC4039129, “Specificity and Promiscuity at the Branch Point in Gentamicin Biosynthesis” (Chemistry & Biology, 2014).

What was measured:
GenQ (VM_GenQ) = target: T1, GenQ (VM_GenQ) (Micromonospora echinospora, UniProt Q70KE0); assay: LC-ESI-MS, […]'-dehydrogenation; type: biochemical; conditions: 200 uM substrate, 16 uM enzyme, Tris-HCl pH 8.0, 30 °C overnight
T1 construct: gene gacJ; full length with 38 extra N-terminal residues absent in original annotation; N-His6 tag, pET28a(+), E. coli BL21(DE3); contains FAD

GenB1 [1] = target: T2, GenB1 (Micromonospora echinospora, UniProt Q70KD9); assay: LC-ESI-MS, GenQ-coupled transamination; type: biochemical; conditions: amino donor 2 mM; 6'-DOG made in situ from 200 uM G418 by 16 uM GenQ; 20 uM GenB1; Tris-HCl pH 8.0, 30 °C
T2 construct: gene gacK; N-His6-tagged, pET28a(+), E. coli BL21(DE3); contains PLP

GenB2 [2] = target: T3, GenB2 (Micromonospora echinospora, UniProt Q70KE6); assay: LC-ESI-MS, […]'-epimerization; type: biochemical; conditions: 200 uM substrate, 20 uM enzyme, Tris-HCl pH 8.0, 30 °C overnight; reversible
T3 construct: gene gacE; N-His6-tagged, pET28a(+), E. coli BL21(DE3); contains PLP

GenB2 [3] = target: T3, GenB2; assay: UV-visible absorption spectrum; type: binding; conditions: co-purified cofactor
GenB4 = target: T4, GenB4 (Micromonospora echinospora, UniProt Q6QVT7); assay: UV-visible absorption spectrum; type: binding; conditions: co-purified cofactor
T4 construct: gene gntH; N-His6-tagged, pET28a(+), E. coli BL21(DE3); contains PLP

GenB3 = target: T5, GenB3 (Micromonospora echinospora, UniProt Q2MG50); assay: UV-visible absorption spectrum; type: binding; conditions: co-purified cofactor
T5 construct: N-His6-tagged, pET28a(+), E. coli BL21(DE3); contains PLP

GenB1 [4] = target: T2, GenB1; assay: UV-visible absorption spectrum; type: binding; conditions: co-purified cofactor

T3 sequence (Q70KE6 entry or part of it): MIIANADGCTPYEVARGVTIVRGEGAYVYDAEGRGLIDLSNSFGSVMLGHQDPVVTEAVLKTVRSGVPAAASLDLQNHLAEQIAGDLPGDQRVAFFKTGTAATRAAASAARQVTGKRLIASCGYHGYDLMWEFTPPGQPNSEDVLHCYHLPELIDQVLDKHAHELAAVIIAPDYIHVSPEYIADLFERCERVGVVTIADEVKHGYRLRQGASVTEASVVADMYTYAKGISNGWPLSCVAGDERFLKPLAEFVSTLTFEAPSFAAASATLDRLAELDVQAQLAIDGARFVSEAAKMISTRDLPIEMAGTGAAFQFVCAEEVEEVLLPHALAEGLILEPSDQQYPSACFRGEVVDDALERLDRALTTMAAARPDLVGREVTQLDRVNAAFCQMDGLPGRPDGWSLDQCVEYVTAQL
T2 sequence (Q70KD9 entry or part of it): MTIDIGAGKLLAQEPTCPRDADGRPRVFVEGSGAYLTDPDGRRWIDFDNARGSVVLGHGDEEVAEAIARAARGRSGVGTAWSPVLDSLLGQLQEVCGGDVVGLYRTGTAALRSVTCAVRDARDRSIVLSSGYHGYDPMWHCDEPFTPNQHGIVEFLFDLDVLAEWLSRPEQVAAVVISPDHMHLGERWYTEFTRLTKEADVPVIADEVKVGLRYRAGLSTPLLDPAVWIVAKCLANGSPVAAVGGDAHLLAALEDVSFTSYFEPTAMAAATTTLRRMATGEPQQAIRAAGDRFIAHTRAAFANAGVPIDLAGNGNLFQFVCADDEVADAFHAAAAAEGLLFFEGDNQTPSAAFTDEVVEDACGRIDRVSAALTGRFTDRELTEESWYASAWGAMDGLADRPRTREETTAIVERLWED
T4 sequence (Q6QVT7 entry or part of it): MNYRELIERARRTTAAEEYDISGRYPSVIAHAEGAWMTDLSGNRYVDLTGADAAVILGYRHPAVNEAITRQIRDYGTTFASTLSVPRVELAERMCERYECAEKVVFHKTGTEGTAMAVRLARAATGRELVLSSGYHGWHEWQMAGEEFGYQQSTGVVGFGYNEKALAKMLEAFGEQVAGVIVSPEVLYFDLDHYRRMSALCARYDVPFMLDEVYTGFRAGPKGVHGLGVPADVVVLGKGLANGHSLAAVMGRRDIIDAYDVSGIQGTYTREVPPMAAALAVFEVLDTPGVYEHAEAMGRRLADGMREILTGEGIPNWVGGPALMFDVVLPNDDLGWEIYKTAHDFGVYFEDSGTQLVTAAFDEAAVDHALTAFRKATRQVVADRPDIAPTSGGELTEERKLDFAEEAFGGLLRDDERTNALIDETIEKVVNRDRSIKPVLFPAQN
T1 sequence (Q70KE0 entry or part of it): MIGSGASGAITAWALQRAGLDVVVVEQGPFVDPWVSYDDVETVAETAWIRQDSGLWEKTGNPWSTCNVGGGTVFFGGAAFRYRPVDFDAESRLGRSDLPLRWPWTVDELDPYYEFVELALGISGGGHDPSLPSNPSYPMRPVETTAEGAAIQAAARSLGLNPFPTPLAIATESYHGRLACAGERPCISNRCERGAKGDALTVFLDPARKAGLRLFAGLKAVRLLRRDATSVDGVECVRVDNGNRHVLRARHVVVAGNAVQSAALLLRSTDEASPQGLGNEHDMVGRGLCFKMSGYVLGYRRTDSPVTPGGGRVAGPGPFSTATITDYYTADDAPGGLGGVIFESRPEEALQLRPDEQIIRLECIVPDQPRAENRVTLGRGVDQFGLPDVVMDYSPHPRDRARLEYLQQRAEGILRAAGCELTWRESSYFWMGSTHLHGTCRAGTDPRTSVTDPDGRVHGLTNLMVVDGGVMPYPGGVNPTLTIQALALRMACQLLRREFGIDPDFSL
T5 sequence (Q2MG50 entry or part of it): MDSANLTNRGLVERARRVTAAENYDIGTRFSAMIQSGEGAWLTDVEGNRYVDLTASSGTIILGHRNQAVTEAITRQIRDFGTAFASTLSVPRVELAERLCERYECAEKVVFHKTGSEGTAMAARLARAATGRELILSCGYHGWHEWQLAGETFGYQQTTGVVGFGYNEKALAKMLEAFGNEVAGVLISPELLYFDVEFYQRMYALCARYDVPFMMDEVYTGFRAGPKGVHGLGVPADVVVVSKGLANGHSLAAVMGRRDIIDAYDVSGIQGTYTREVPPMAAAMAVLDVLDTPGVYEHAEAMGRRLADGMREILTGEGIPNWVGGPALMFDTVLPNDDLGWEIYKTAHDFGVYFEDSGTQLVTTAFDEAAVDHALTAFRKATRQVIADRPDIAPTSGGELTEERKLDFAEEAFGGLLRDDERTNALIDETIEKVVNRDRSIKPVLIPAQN

CN[C@@H]1[C@@H](O)[C@@H](O[C@@H]2[C@@H](O)[C@H](O[C@H]3O[C@H](CO)[C@@H](O)[C@H](O)[C@H]3N)[C@@H](N)C[C@H]2N)OC[C@]1(C)O (stereo in doubt) [gentamicin X2]
LC-ESI-MS, 6'-dehydrogenation (GenQ (VM_GenQ)): GenQ also showed activity with X2 as the substrate

CSCC[C@H](N)C(=O)O [L-methionine]
LC-ESI-MS, GenQ-coupled transamination (GenB1 [1]): conversion of G418 to JI-20B, with L-methionine as the most effective amino donor

CN[C@@H]1[C@@H](O)[C@@H](O[C@@H]2[C@@H](O)[C@H](O[C@H]3O[C@H]([C@@H](C)N)CC[C@H]3N)[C@@H](N)C[C@H]2N)OC[C@]1(C)O [gentamicin C2]
LC-ESI-MS, 6'-epimerization (GenB2 [2]): GenB2 did catalyze the epimerization of C2

CN[C@@H]1[C@@H](O)[C@@H](O[C@@H]2[C@@H](O)[C@H](O[C@H]3O[C@H]([C@H](C)N)CC[C@H]3N)[C@@H](N)C[C@H]2N)OC[C@]1(C)O [gentamicin C2a]
LC-ESI-MS, 6'-epimerization (GenB2 [2]): when C2a was used as the substrate the reverse reaction was also detected

Cc1ncc(COP(=O)(O)O)c(C=O)c1O [pyridoxal-5′-phosphate]
UV-visible absorption spectrum (GenB2 [3]): UV-visible absorption spectra typical of aminotransferases containing bound pyridoxal-5′-phosphate cofactor
UV-visible absorption spectrum (GenB4): UV-visible absorption spectra typical of aminotransferases containing bound pyridoxal-5′-phosphate cofactor
UV-visible absorption spectrum (GenB3): UV-visible absorption spectra typical of aminotransferases containing bound pyridoxal-5′-phosphate cofactor
UV-visible absorption spectrum (GenB1 [4]): UV-visible absorption spectra typical of aminotransferases containing bound pyridoxal-5′-phosphate cofactor
